Where two headings read alike, the source gives them in different places.
Assays:
[1] = biological target: HIV-1 protease variant M3: I50V/A71V (Human immunodeficiency virus type 1 group M subtype B, UniProt P04585, A559V/I538V); test: FRET-based enzymatic assay, enzyme inhibition constants; type: biochemical; settings: M3 versus WT protease
WT clade B virus = test: PhenoSense HIV antiviral assay; type: cell-based
[2] = tested on: 12 patient-derived drug resistant viruses; test: PhenoSense HIV antiviral assay; type: cell-based
Microsomal stability [3] = type: in vitro ADME; settings: human microsomes
Microsomal stability [4] = type: in vitro ADME; settings: rat microsomes
WT HIV-1 protease = WT HIV-1 protease (Human immunodeficiency virus type 1 group M subtype B, UniProt P04585); settings: FDA-approved drugs, ref Nalam, et al., 2010; cited from earlier work

Compound | Microsomal Stability (Avg. % Fraction Remaining) at 30 Minutes Human (Microsomal stability [3]; RTV +) [%] | Microsomal Stability (Avg. % Fraction Remaining) at 30 Minutes Human (Microsomal stability [3]; RTV −) [%] | Microsomal Stability (Avg. % Fraction Remaining) at 60 Minutes Human (Microsomal stability [3]; RTV +) [%] | Microsomal Stability (Avg. % Fraction Remaining) at 60 Minutes Human (Microsomal stability [3]; RTV −) [%] | Microsomal CLint Human (Microsomal stability [3]; RTV +) [μL min^-1 mg^1] | Microsomal T1/2 Human (Microsomal stability [3]; RTV +) [min] | Microsomal CLint Human (Microsomal stability [3]; RTV −) [μL min^-1 mg^1] | Microsomal T1/2 Human (Microsomal stability [3]; RTV −) [min] | Microsomal Stability (Avg. % Fraction Remaining) at 30 Minutes Rat (Microsomal stability [4]; RTV +) [%] | Microsomal Stability (Avg. % Fraction Remaining) at 30 Minutes Rat (Microsomal stability [4]; RTV −) [%] | Microsomal Stability (Avg. % Fraction Remaining) at 60 Minutes Rat (Microsomal stability [4]; RTV +) [%] | Microsomal Stability (Avg. % Fraction Remaining) at 60 Minutes Rat (Microsomal stability [4]; RTV −) [%] | Microsomal CLint Rat (Microsomal stability [4]; RTV +) [μL min^-1 mg^1] | Microsomal T1/2 Rat (Microsomal stability [4]; RTV +) [min] | Microsomal CLint Rat (Microsomal stability [4]; RTV −) [μL min^-1 mg^1] | Microsomal T1/2 Rat (Microsomal stability [4]; RTV −) [min] | EC50 (WT clade B virus; WT clade B virus) | further results
CC(C)CN(C[C@@H](O)[C@H](Cc1ccccc1)NC(=O)O[C@H]1CO[C@H]2OCC[C@H]21)S(=O)(=O)c1ccc(N)cc1 [DRV, Darunavir] |  |  |  |  |  |  |  |  |  |  |  |  |  |  |  |  |  | decrease in M3 susceptibility compared to WT protease [1]: 50 fold; EC50 (WT clade B virus): 0.4 nM; EC50 ([2]; Human immunodeficiency virus 1, read-out: average EC50): 5.98 nM; antiviral potency ([2]; MDR strains with the I50V protease mutation): loses significant potency
CCC(CC)CN(C[C@@H](O)[C@H](Cc1ccccc1)NC(=O)O[C@H]1CO[C@H]2OCC[C@H]21)S(=O)(=O)c1ccc(CO)cc1 [11c] | 64 | 0 | 69 | 0 | 26 | 81 | 829 | 3 | 79 | 0 | 57 | 0 | 27 | 78 | 907 | 2 |  | 
CCC(CC)CN(C[C@@H](O)[C@H](Cc1ccccc1)NC(=O)O[C@H]1CO[C@H]2OCC[C@H]21)S(=O)(=O)c1ccc2c(c1)OCO2 [11d] | 55 | 0 | 46 | 0 | 46 | 45 | 617 | 3 | 21 | 0 | 4 | 0 | 156 | 13 | 712 | 3 |  | 
CC[C@H](C)CN(C[C@@H](O)[C@H](Cc1ccccc1)NC(=O)O[C@H]1CO[C@H]2OCC[C@H]21)S(=O)(=O)c1ccc(OC)cc1 [10b] | 79 | 0 | 68 | 0 | 19 | 110 | 776 | 3 | 0 | 0 | 0 | 0 | 518 | 4 | 885 | 2 | more potent | EC50 ([2]; read-out: average EC50, average against 12 different drug resistant strains): 1.33 nM
CCC(CC)CN(C[C@@H](O)[C@H](Cc1ccccc1)NC(=O)O[C@H]1CO[C@H]2OCC[C@H]21)S(=O)(=O)c1ccc(OC)cc1 [11b] | 75 | 0 | 66 | 0 | 23 | 90 | 844 | 2 | 50 | 18 | 20 | 19 | 74 | 28 | 150 | 14 | more potent | 
CC[C@H](C)CN(C[C@@H](O)[C@H](Cc1ccccc1)NC(=O)O[C@H]1CO[C@H]2OCC[C@H]21)S(=O)(=O)c1ccc2c(c1)OCO2 [10d] | 80 | 9 | 60 | 4 | 24 | 85 | 232 | 9 | 0 | 0 | 0 | 0 | 771 | 3 | 987 | 2 | more potent | 
CC[C@H](C)CN(C[C@@H](O)[C@H](Cc1ccccc1)NC(=O)O[C@H]1CO[C@H]2OCC[C@H]21)S(=O)(=O)c1ccc(CO)cc1 [10c] | 93 | 0 | 89 | 0 | 8 | >180 | 590 | 4 | 45 | 0 | 22 | 0 | 79 | 26 | 664 | 3 |  | 
Cc1cccc(C)c1OCC(=O)N[C@@H](Cc1ccccc1)[C@@H](O)C[C@H](Cc1ccccc1)NC(=O)[C@H](C(C)C)N1CCCNC1=O [LPV] |  |  |  |  |  |  |  |  |  |  |  |  |  |  |  |  |  | Ki (WT HIV-1 protease): 0.005 nM
CC[C@H](C)CN(C[C@@H](O)[C@H](Cc1ccccc1)NC(=O)O[C@H]1CO[C@H]2OCC[C@H]21)S(=O)(=O)c1ccc(N)cc1 [10a] | 81 | 42 | 66 | 19 | 21 | 99 | 81 | 26 | 51 | 24 | 35 | 9 | 67 | 31 | 129 | 16 |  | 

— publication PMC3934494 (Chemistry & biology, 2013)
